From PubChem BioAssay (NCI)
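In this assay, cells in 96-well plates receive the compound at five concentrations for 48 hours. Endpoints are linearly interpolated between the surrounding concentrations. GI50 marks 50% less growth. At the TGI there is no net growth.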

What was measured:
Assay in all cases: NCI anticancer screen, dose series, 48 h
HL-60(TB) leukemia = test system: HL-60(TB) leukemia
MOLT-4 leukemia = test system: MOLT-4 leukemia
KM12 colon = test system: KM12 colon
NCI-H226 lung = test system: NCI-H226 lung
K-562 leukemia = test system: K-562 leukemia
SF-295 CNS = test system: SF-295 CNS
SW-620 colon = test system: SW-620 colon
CAKI-1 renal = test system: CAKI-1 renal
HCC-2998 colon = test system: HCC-2998 colon
NCI/ADR-RES ovarian = test system: NCI/ADR-RES ovarian

Structure (SMILES)	TGI (HL-60(TB) leukemia) [µM]	TGI (MOLT-4 leukemia) [µM]	TGI (KM12 colon) [µM]	TGI (NCI-H226 lung) [µM]	TGI (K-562 leukemia) [µM]	TGI (SF-295 CNS) [µM]	TGI (SW-620 colon) [µM]	GI50 (HL-60(TB) leukemia) [nM]	GI50 (MOLT-4 leukemia) [nM]	GI50 (KM12 colon) [µM]	GI50 (CAKI-1 renal) [µM]	TGI (CAKI-1 renal) [µM]	GI50 (NCI-H226 lung) [nM]	GI50 (HCC-2998 colon) [nM]	TGI (HCC-2998 colon) [µM]	GI50 (NCI/ADR-RES ovarian) [µM]	TGI (NCI/ADR-RES ovarian) [µM]	GI50 (K-562 leukemia) [µM]	GI50 (SW-620 colon) [µM]	GI50 (SF-295 CNS) [nM]
CC12CCC(=O)N1c1ccc([N+](=O)[O-])cc1N2 (stereo not drawn)	> 100	> 100	> 100	> 100	> 100	> 100	> 100	–	–	–	–	–	–	–	–	–	–	–	–	–
N#CCCN1C/C(=C/c2ccc(Cl)cc2)C(=O)/C(=C/c2ccc(Cl)cc2)C1	7.38	8.39	0.841	8.48	> 100	–	1.15	2120	1940	0.275	2.95	12	2350	1840	3.33	3.4	52.2	0.378	0.338	–
C(=N/N(Cc1ccccc1)Cc1ccccc1)/c1ccccc1	–	–	> 100	> 100	–	> 100	> 100	–	–	> 100	> 100	> 100	> 100000	> 100000	> 100	> 100	> 100	–	> 100	44500
Cc1ccccc1NC(=O)C(=O)C(C#N)c1ccccc1C (stereo not drawn)	> 100	> 100	> 100	> 100	61.5	> 100	36.5	–	–	–	–	> 100	–	–	> 100	–	–	–	–	–
O=C1c2sccc2-c2cccc3cccc1c23 (tested in a mixture with another compound)	46.1	5.2	28.6	33.9	25.8	45	17.2	–	–	–	–	24.2	–	–	–	–	47.2	–	–	–
O=S(=O)(c1cccc(N=C=S)c1)c1cccc(N=C=S)c1	50	30.6	61.5	–	> 100	39.4	–	–	–	–	–	–	–	–	46.7	–	–	–	–	–
Cc1ccc(S(=O)(=O)N/N=C(/CC(=O)c2c(C)n([O-])c3ccccc3[n+]2=O)C(=O)Nc2ccccc2C)cc1	–	–	> 100	> 100	–	> 100	> 100	–	–	–	–	> 100	–	–	> 100	–	–	–	–	–
N#CC(C#N)c1ccc(C(=O)N2CCC[C@H]2CO)cc1	> 100	> 100	> 100	–	> 100	> 100	> 100	–	–	–	–	> 100	–	–	> 100	–	–	–	–	–
CC(=O)OCCOCNC(=S)N/N=C/c1cc(Br)cs1	> 100	> 100	> 100	> 100	> 100	> 100	> 100	–	–	–	–	–	–	–	> 100	–	–	–	–	–
COCOCC/C=C/C=O	> 100	> 100	> 100	–	> 100	> 100	> 100	–	–	–	–	–	–	–	> 100	–	–	–	–	–
N#CC(c1ccccn1)c1nc2ccccc2[nH]1 (stereo not drawn)	> 100	> 100	–	> 100	> 100	> 100	> 100	–	–	–	–	> 100	–	–	> 100	–	–	–	–	–
CN(CCNCc1ccccn1)CCNCc1ccccn1	23.3	> 100	10.1	4.2	> 100	5.69	11.3	3270	3610	3.11	–	–	1920	2170	4.64	3.57	> 100	3.58	3.18	2230
O=C(c1nc2ccccc2[nH]c1=O)C(O)c1ccccc1 (stereo not drawn)	> 100	> 100	> 100	> 100	> 100	> 100	> 100	–	–	–	–	> 100	–	–	> 100	–	–	–	–	–
O=C(O)CCC(=O)c1ccc2sc3ccccc3c2c1	> 100	> 100	> 100	> 100	> 100	> 100	> 100	–	–	–	–	> 100	–	–	–	–	> 100	–	–	–
NC(=O)C(=O)C1CCC2=C(Sc3ccccc3N2)C1=O (stereo not drawn)	> 100	> 100	> 100	–	> 100	–	> 100	–	–	–	–	> 100	–	–	> 100	–	–	–	–	–
COc1ncnc(NS(=O)(=O)c2ccc(N=C3C(=O)N(CN4CCN(c5c(F)cc6c(=O)c(C(=O)O)cn(C7CC7)c6c5OC)CC4C)c4ccc(Br)cc43)cc2)c1OC (stereo not drawn)	> 50	> 50	15.9	> 50	> 50	> 50	> 50	8400	18300	4.02	6.21	> 50	15300	–	–	7.06	> 50	1.69	9.41	20800
O=C(Nc1cccc(-n2cc(-c3ccncc3)c(-c3cc(O)cc(Cl)c3)n2)c1)c1cc(C(F)(F)F)cc(C(F)(F)F)c1	–	> 100	–	> 100	> 100	7.15	> 100	–	2380	–	3.67	> 100	16100	3120	11.6	4.55	> 100	3.24	4.48	2370
O=C(O)Cc1cccnc1	–	> 100	> 100	> 100	> 100	> 100	> 100	–	–	–	–	> 100	–	–	> 100	–	> 100	–	–	–
CCOC(=O)/C(C#N)=C(O)/C(=C\c1ccc(Br)cc1)NC(=O)c1ccccc1	> 100	> 100	> 100	> 100	> 100	> 100	51.7	–	–	–	–	> 100	–	–	> 100	–	–	–	–	–
CCN(CC)c1ccc2c(c1)Oc1ccc(N(CC)CC)cc1C21Oc2ccccc2-c2c1c1ccccc1n2CC (stereo not drawn)	11	> 100	–	> 100	> 100	> 100	> 100	–	–	–	–	> 100	–	–	> 100	–	–	–	–	–

Structure (SMILES)	TGI (HL-60(TB) leukemia) [µM]	TGI (MOLT-4 leukemia) [µM]	TGI (KM12 colon) [µM]	TGI (NCI-H226 lung) [µM]	TGI (K-562 leukemia) [µM]	TGI (SF-295 CNS) [µM]	TGI (SW-620 colon) [µM]	GI50 (HL-60(TB) leukemia) [nM]	GI50 (MOLT-4 leukemia) [nM]	GI50 (KM12 colon) [µM]	GI50 (CAKI-1 renal) [µM]	TGI (CAKI-1 renal) [µM]	GI50 (NCI-H226 lung) [nM]	GI50 (HCC-2998 colon) [nM]	TGI (HCC-2998 colon) [µM]	GI50 (NCI/ADR-RES ovarian) [µM]	TGI (NCI/ADR-RES ovarian) [µM]	GI50 (K-562 leukemia) [µM]	GI50 (SW-620 colon) [µM]	GI50 (SF-295 CNS) [nM]
Cc1ccc(NC(=O)CC2C(=O)Nc3ccccc3S2(=O)=O)c(C)c1 (stereo not drawn)	14	28.7	–	35.9	29	50.2	19.5	–	–	–	–	35.9	–	–	30.5	–	–	–	–	–
COc1cc2c(cc1OCCCCN1CCN(C(=S)SCCC(C#N)(c3ccccc3)c3ccccc3)CC1)N=C[C@@H]1CCCN1C2=O	1.57	–	3.78	3.29	> 100	–	–	324	–	1.39	0.597	2.7	1260	–	–	3.05	> 100	3.29	–	–
COc1cc2c(cc1OC)-c1ncc3c(OC)c(OC)c(OC)cc3c1C2	> 100	–	> 100	–	> 100	> 100	> 100	10200	–	33.8	55.2	> 100	–	47700	> 100	13.4	45	10.7	34.2	25800
Cc1nc(C(=O)O)c2ccccc2n1	> 100	> 100	> 100	–	> 100	> 100	> 100	–	–	–	–	> 100	–	–	> 100	–	–	–	–	–
NC(=O)NNC(=O)NC12CC3CC(CC(C3)C1)C2	> 100	> 100	> 100	> 100	> 100	> 100	> 100	–	–	–	–	> 100	–	–	> 100	–	–	–	–	–
Cc1ccc(C)c(N2C(=O)C(=O)C(c3nc4ccccc4s3)/C(=N/NC(=O)NN)C2=O)c1 (stereo not drawn)	> 100	> 100	> 100	> 100	–	> 100	> 100	–	–	–	–	> 100	–	–	> 100	–	–	–	–	–
O=C1Nc2ccccc2N=CC1NC(=O)C(c1ccccc1)c1ccccc1 (stereo not drawn)	> 100	> 100	> 100	> 100	> 100	> 100	> 100	–	–	–	–	> 100	–	–	> 100	–	–	–	–	–
C=C1CCC2[C@@H](CCC3[C@]2(C)CCC[C@]3(C)C(=O)OC)C1CC=O (stereo partly drawn)	40.1	29.8	36.6	37.2	26.6	31.3	35	–	11200	18.7	16.4	30.1	–	–	–	–	–	8.65	–	16800
O=C(CC1SC(=Nc2ccccc2Cl)NC1=O)Nc1ccc(Cl)cc1Cl (stereo not drawn)	> 100	> 100	> 100	> 100	–	> 100	> 100	–	–	–	–	–	–	–	> 100	–	–	–	–	–
O=C(O)/C=C/c1nc2ccccc2c(=O)o1	> 100	> 100	> 100	> 100	> 100	> 100	> 100	–	–	–	–	–	–	–	> 100	–	–	–	–	–
C/C(=C\c1cnc(C)s1)[C@@H]1C[C@@H]2O[C@@H]2CCC[C@H](C)[C@H](O)[C@@H](C)C(=O)C(C)(C)[C@@H](O)CC(=O)O1	–	> 100	> 100	> 100	> 100	> 100	> 100	–	< 10	< 0.01	–	–	–	10.3	> 100	0.0228	> 100	< 0.01	< 0.01	10.2
COC(=O)[C@@]1(C(C)CC(=O)O)CCCCC1=O (stereo partly drawn)	> 100	> 100	> 100	> 100	> 100	> 100	–	–	–	–	–	> 100	–	–	> 100	–	–	–	–	–
O=S(=O)(/C=C/C(=C/c1ccccc1)S(=O)(=O)c1ccccc1)c1ccccc1	–	5.21	5.42	–	9.19	3.05	–	–	–	–	–	2.88	–	–	3.45	–	–	–	–	–
COc1ccc(CCC2c3cc(OC)c(OC)cc3CCN2C)cc1OC (stereo not drawn)	> 100	> 100	> 100	> 100	> 100	> 100	> 100	–	–	–	–	> 100	–	–	> 100	–	–	–	–	–
C#CCNC(=O)[C@H](CC)[C@H]1CC[C@H](C)[C@H]([C@@H](C)[C@H](O)[C@H](C)C(=O)[C@H](CC)C2O[C@]3(C=CC(=O)[C@]4(CC[C@@](C)([C@H]5CC[C@](O)(CC)[C@H](C)O5)O4)O3)[C@H](C)C[C@@H]2C)O1 (stereo partly drawn)	5.45	8.76	–	22.6	–	3.56	> 100	2280	2440	–	1.78	7.02	2940	2350	5.89	2.26	7.72	–	3.12	1570
COC1C(O)C(CO)OC(OC2C(O)COC(OC3C(C)OC(OC4C(O[C@H]5CC[C@@]6(C)C(CC=C7[C@H]6CCC68C(=O)O[C@@](C)(CCCC(C)C)[C@H]6[C@@H](OC(C)=O)C[C@@]78C)C5(C)C)OCC(OS(=O)(=O)O)C4O)C(OC4OCC(O)C(O)C4O)C3O)C2O)C1O (stereo partly drawn)	–	0.368	0.193	0.484	0.242	0.389	0.272	–	153	0.0746	0.303	0.922	192	130	0.391	0.207	0.63	0.0923	0.0952	158
C=CNC(=O)NC(=O)CSc1nnc(-c2ccccc2NC(=O)C(F)(F)F)c(=O)[nH]1	–	> 100	> 100	> 100	> 100	> 100	> 100	–	–	–	–	> 100	–	–	> 100	–	–	–	–	–
CC1(c2ccccc2Cl)C(C#N)C(=O)NC(=O)C1C#N (stereo not drawn)	48.5	> 100	–	98	> 100	> 100	> 100	–	–	–	–	> 100	–	–	> 100	–	–	–	–	–
Nc1c([N+](=O)[O-])nc(Cl)c2nncn12	> 100	> 100	> 100	> 100	> 100	> 100	> 100	–	–	–	–	> 100	–	–	> 100	–	–	–	–	–
